Data published in PubChem BioAssay (NCI).
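Cells were grown in 96-well plates and exposed to each compound for 48 hours at five concentrations; endpoints were interpolated linearly between bracketing concentrations, or set to the highest concentration if not reached. At the GI50, growth is halved. TGI denotes the concentration required for complete inhibition of growth.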

The molecules below were run on HCT-15 colon (assay: NCI tumour cell line growth inhibition, 48 h).

SMILES	TGI [µM]	GI50 [µM]
CCOC(=O)c1c(CN2CCCC2)n(-c2ccccc2)c2cc(Br)c(O)cc12	40.5	–
COc1cccc(Nc2nc(-c3cccs3)nc3cc(OC)c(OC)cc23)c1	49.3	–
Nn1c(-c2ccccc2)n[nH]c1=O	> 100	–
O=C1c2cc3c(cc2-c2c1c1ccc(F)cc1c(=O)n2C[C@H](O)[C@@H](O)[C@H](O)CO)OCO3	0.766	0.183
Nn1c(Nc2ccc(S(=O)(=O)Nc3ncccn3)cc2)nnc(/C=C/c2c(O)ccc3ccccc23)c1=O	> 100	–
Cc1cc(-c2nc3ccc(F)cc3s2)ccc1NC(=O)[C@H](C)N	14.1	–
C=CC1(CC/C(=C\[N+](=O)[O-])c2ccc(OC)c(OC)c2)OCC(C)(C)CO1	38.6	–
Cc1cc(Nc2ccc(S(=O)(=O)O)c3cc(S(=O)(=O)O)cc(S(=O)(=O)O)c23)c2ccccc2n1	> 100	–
Cc1cc(C)nc(NS(=O)(=O)c2ccc(NC(=O)c3ccc4nc5ccccc5c(Nc5ccc(S(N)(=O)=O)cc5)c4c3)cc2)n1	> 100	–
Nc1c(-c2ccc(Cl)c(Cl)c2)c2ccc([N+](=O)[O-])cc2c(=O)n1-c1nc2ccccc2s1	> 47	–
CC1(C(=O)O)CCC2(C)CCC3(C)C(=CC(=O)C4C5(C)CCC(O)C(C)(C)C5CCC43C)C2C1 (centres undefined)	85.4	–
NS(=O)(=O)c1nnc(NC(=O)Nc2ccc(Cl)c(Cl)c2)s1	50.7	–
COC(=O)c1c(C)nc2c1cc(O)c1[nH]c(C)c(C)nc12	> 100	–
Cn1c2ccc3cc2c(=S)c2cc(ccc21)OCCOCCOCCOCCOCCOCCO3	> 10	–
O=[N+]([O-])c1cc(C=NC23CC4CC(CC(C4)C2)C3)ccc1Cl	48.3	–
COc1cc(S(=O)(=O)Nc2nc(-c3ccc(N4C(=O)C(CC(=O)O)SC4c4cccs4)cc3)cs2)ccc1Cl (centres undefined)	39.8	–
CC(=O)N(C(=O)CC(=O)N1N=C(c2ccccc2)C(N=Nc2ccccc2[N+](=O)[O-])C1=O)c1ccc(Cl)cc1 (centres undefined)	> 10	–
Oc1ccccc1CNCc1nc2ccccc2[nH]1	12.3	–
COc1ncc(/C=C2\OC(=O)c3ccccc32)c(OC)n1	> 100	–
CC(=O)Nn1c(=S)[nH]c2ccccc21	> 100	–
C[C@]12CCC3C4=C(CCC3C1CCC2=O)C(=O)[C@H]1O[C@H]1C4=O (some centres undefined)	2.8	–
CCCCOC(=O)Nc1ccc(S(=O)(=O)Nc2ccccc2Cl)cc1	44.9	–
Oc1[nH]c2ccccc2c1N=Nc1nc(-c2ccc(Br)cc2)cs1	68.3	–
N#CC(Cc1ccccc1)N(CCC1=CCCCC1)C(c1ccccc1)c1ccccc1 (centres undefined)	> 100	–

SMILES	TGI [µM]	GI50 [µM]
C#CCn1c(=O)c2ccccc2n(CC#C)c1=O	> 10	–
O=C1CCC2(c3ccc(Cl)cc3)Nc3ccncc3N12 (centres undefined)	> 10	–
Nc1ncnc2c1[nH]c(=O)n2-c1ccccc1	> 100	–
[N-]=[N+]=NC(c1ccccc1)(c1ccccc1)c1ccccc1	40.5	–
CC1CN(C)c2ccccc2N=C1NN (centres undefined)	> 100	–
COc1ccc(CN2C(=O)/C(=C\c3cc(OC)c(OC)c(OC)c3)c3ccccc32)cc1	3.86	1.9
N[C@@H](CCC(=O)NCP(=O)(O)O)C(=O)O	> 100	–
CCOP(=O)(OCC)C(F)(F)c1ccc(CC(NC(=O)OC(C)(C)C)C(=O)O)cc1 (centres undefined)	> 10	–
COc1ccc(-c2[nH]c3c4c(nc5c(c24)C(=O)CC(C)(C)C5)CC(C)(C)C3)cc1	> 100	–
CCC(=O)NCC1CCCN2CCCCC12 (centres undefined)	> 100	–
NC(=O)C(=Cn1c(=S)[nH]c2ccc([N+](=O)[O-])cc21)C(N)=O	> 100	–
O=C(C1OC1c1ccc(Br)cc1O)C12CC3CC(CC(C3)C1)C2 (centres undefined)	47	–
Cc1ccc(N(Cc2ccccc2)Cc2ccccc2)cc1	> 100	–
c1ccc2c3[nH]c(c2c1)=Nc1ccc(cc1)-c1nc2cc(ccc2o1)N=c1[nH]c(c2ccccc12)=Nc1ccc2nc(oc2c1)-c1ccc(cc1)N=3	> 100	–
Nc1nc(-c2ccccc2)nc2oc(-c3cccs3)nc12	> 100	–
O=c1[nH]c(=S)[nH]c2c1C(c1ccc([N+](=O)[O-])cc1)c1c([nH]c(=S)[nH]c1=O)O2	> 100	–
Cn1c(=O)c2c(nc3n2CC(C(=O)O)N3)n(C)c1=O (centres undefined)	> 100	–
Cc1ccc(-c2cc(-c3ccco3)c(C#N)c(=S)n2C2OC(CO)C(O)C(O)C2O)cc1 (centres undefined)	> 100	–
Cc1oc2c(cc(O)c3cc(O)ccc32)c2cccc1-2	> 100	–
NC(N)=Nc1ccc(CC(N)NCC(=O)O)cc1 (centres undefined)	> 25	–
O=C(Cc1ccc(O)c(O)c1)NCc1c[nH]c2ccccc12	> 100	–
COc1ccc(-n2c(C)nc3ccc(NC(=S)Nc4ccccc4)cc3c2=O)cc1	> 100	–
O=C(NCc1ccccc1)c1n[nH][nH]c1=O	> 100	–
